Experimental data from PubChem BioAssay (NCI).
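48-hour exposure; five concentrations; linearly interpolated endpoints. Abbreviation: GI50, concentration required for 50% inhibition of growth. TGI is the concentration that stops growth completely.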

How the values were obtained:
Assay in all cases: NCI anticancer screen, dose series, 48 h
A549 NSCLC = system: A549 NSCLC
HOP-92 NSCLC = system: HOP-92 NSCLC
HT29 colon = system: HT29 colon
NCI-H522 lung = system: NCI-H522 lung
SF-295 CNS = system: SF-295 CNS
SK-MEL-5 melanoma = system: SK-MEL-5 melanoma
SW-620 colon = system: SW-620 colon
UACC-257 melanoma = system: UACC-257 melanoma
EKVX NSCLC = system: EKVX NSCLC
MCF7 breast = system: MCF7 breast

SMILES | TGI (A549 NSCLC) [µM] | TGI (HOP-92 NSCLC) [µM] | TGI (HT29 colon) [µM] | TGI (NCI-H522 lung) [µM] | TGI (SF-295 CNS) [µM] | TGI (SK-MEL-5 melanoma) [µM] | TGI (SW-620 colon) [µM] | TGI (UACC-257 melanoma) [µM] | TGI (EKVX NSCLC) [µM] | TGI (MCF7 breast) [µM] | GI50 (EKVX NSCLC) [µM] | GI50 (HOP-92 NSCLC) [µM] | GI50 (HT29 colon) [µM] | GI50 (MCF7 breast) [µM] | GI50 (NCI-H522 lung) [µM] | GI50 (SF-295 CNS) [µM] | GI50 (SK-MEL-5 melanoma) [µM] | GI50 (SW-620 colon) [µM] | GI50 (UACC-257 melanoma) [µM]
Nc1nc(N)c(N=Nc2ccccc2)c(=O)[nH]1 | > 100 | > 100 | > 100 | > 100 | > 100 | > 100 | > 100 | > 100 | – | – | – | – | – | – | – | – | – | – | –
CC=C/C=C/[C@@H]1O[C@](O)([C@H](CC)C(=O)NC/C=C/C=C(\C)[C@@H](OC)[C@@H](C)[C@@H]2O[C@H](/C=C/C=C/C=C(\C)C(=O)c3c(O)cc[nH]c3=O)[C@H](O)[C@@H]2O)[C@H](O)[C@H](O)C1(C)C | > 100 | > 100 | > 100 | > 100 | > 100 | – | > 100 | > 100 | > 100 | > 100 | – | – | – | – | – | – | – | – | –
OCC1NC(CO)C(O)C1O (centres undefined) | – | > 100 | > 100 | – | > 100 | > 100 | > 100 | > 100 | – | > 100 | – | – | – | – | – | – | – | – | –
COc1ccc(/C=C/c2cc(O)cc(OC3OC(CO)C(O)C(O)C3O)c2)cc1O (centres undefined) | > 100 | > 100 | > 100 | > 100 | > 100 | > 100 | > 100 | > 100 | > 100 | > 100 | – | – | – | – | – | – | – | – | –
CCOP(=O)(OCC)C(Cc1c[nH]c2ccccc12)C(=O)O (centres undefined) | > 100 | > 100 | > 100 | > 100 | > 100 | > 100 | > 100 | > 100 | – | > 100 | – | – | – | – | – | – | – | – | –
COc1ccc(CCn2ccc(C)n2)c(OC)c1 | > 100 | – | > 100 | – | > 100 | > 100 | > 100 | > 100 | > 100 | > 100 | – | – | – | – | – | – | – | – | –
O=C(Nc1ccc(C(F)(F)F)cc1[N+](=O)[O-])C(=O)Nn1c(=S)[nH]c2ccccc2c1=O | > 100 | > 100 | > 100 | > 100 | > 100 | > 100 | > 100 | > 100 | > 100 | – | – | – | – | – | – | – | – | – | –
COc1ncnc2c(Cl)c(C(O)c3ccccc3)c(Cl)cc12 (centres undefined) | > 100 | 65.4 | > 100 | > 100 | 68.2 | > 100 | 92.6 | > 100 | > 100 | > 100 | – | – | – | – | – | – | – | – | –
CC(=O)OC/C=C\Cn1ncc(=O)[nH]c1=O | 58.9 | 30.6 | 29.9 | 32.4 | – | 26.7 | 40.5 | – | 38.8 | 45.1 | – | – | – | – | – | – | – | – | –
Fc1ccc(C2CC(c3cccc(Nc4ccncc4)c3)=NN2c2ccccc2)cc1 (centres undefined) | – | 2.73 | 5.09 | 3.98 | 3.16 | 3.22 | 3.21 | 4.31 | 5.71 | 3.48 | 1.99 | 1.33 | 2.13 | 1.74 | 1.81 | 1.74 | 1.78 | 1.69 | 2.09
Nc1ccc(C2(c3ccc(N)cc3)C3CC4CC(C3)CC2C4)cc1 | – | 28.5 | 26.3 | 30.5 | 20.3 | – | 28.8 | 36.2 | 32 | 43.7 | – | – | – | – | – | – | – | – | –
